Where a name gives a salt, the structure may show the parent alone. Read-outs that look alike come from different tables or passages of the source.

We go through three compounds from US10301282B2, “Polymorphic form X of nilotinib dihydrochloride hydrate” (Cipla Limited, priority 2015, dated 2019).

For data set [1] the following is noted: as described in U.S. Pat. No. 8,163,904; cited from earlier work.
The conditions of data set [2]: as described in U.S. Pat. No. 8,163,904; cited from earlier work. This is another data set of the same source.
A short description of data set [3]: Hygroscopicity. The data set is classed as physicochemical.
The nature of data set [4]: Intrinsic dissolution study in 0.1 N HCl. Type of data set: physicochemical. Particulars: at 15 minutes time interval, conventional intrinsic dissolution assembly. The method, then: Intrinsic dissolution studies were conducted on nilotinib dihydrochloride Form X and nilotinib monohydrochloride monohydrate in 0.1 N HCl using a conventional intrinsic dissolution assembly.

As to `Cc1cn(-c2cc(NC(=O)c3ccc(C)c(Nc4nccc(-c5cccnc5)n4)c3)cc(C(F)(F)F)c2)cn1` [Form B, nilotinib hydrochloride monohydrate], in data set [1], the hygroscopicity entry is listed as “hygroscopic”. Besides, in data set [2], the solubility in water result is on record as “very slightly soluble in water”.
Regarding `Cc1cn(-c2cc(NC(=O)c3ccc(C)c(Nc4nccc(-c5cccnc5)n4)c3)cc(C(F)(F)F)c2)cn1` [nilotinib dihydrochloride Form X, nilotinib dihydrochloride hydrate], the hygroscopicity entry in data set [3] is listed as “substantially non-hygroscopic”. The “release (intrinsic dissolution)” value in data set [4] (dihydrochloride hydrate) is given as 109%.
In the case of `Cc1cn(-c2cc(NC(=O)c3ccc(C)c(Nc4nccc(-c5cccnc5)n4)c3)cc(C(F)(F)F)c2)cn1` [nilotinib monohydrochloride monohydrate], in data set [4] (monohydrochloride monohydrate), the “release (intrinsic dissolution)” value was found to be 114%.
